The source of these data is patent US4018782A, “2,2-Dimethyl-3R-carboxy-6S- acylamido-1-oxa-4-aza-5R-bicyclo[3,2,0]heptan-7-ones” (Queen's University, priority 1974, dated 1977).

One assay relates to S. lutea. The experiment in a line: antibacterial activity (plate assay) vs S. lutea. The assay is classed as cell-based. The procedure:
The oxazoline (74 mg., 0.236 mmole) was dissolved in HMPT (1.5 ml.) and the solution was degassed with dry nitrogen for 0.5 hr. Then 0.83 ml. of a 0.612 M solution of t-BuSLi (0.508 mmole), prepared by method A, was added during 0.5 hr. and the mixture was stirred overnight. […] The characteristic peak of the oxazolinecarboxylic acid, 2-benzyl-6-(1'-carboxy-2'-methyl-prop-1'-enyl)-1-oxa-3,6-diaza-4S,5R-bicyclo [3,2,0] hept-2-ene-7-one, were absent from the spectrum.

Assay [1] can be described thus: antibacterial activity (organism not stated). The note with it: at levels of 250 mcg./ml. The assay is classed as cell-based.

`CC(Oc1ccc(Cl)cc1)C(=O)N[C@@H]1C(=O)N2[C@@H]1OC(C)(C)[C@@H]2C(=O)O` (stereo partly drawn): the “antibacterial activity vs. S. lutea” value in the assay with S. lutea is “high antibacterial activity”.

As to `CC(C)=C(C(=O)O)N1C(=O)[C@H]2N=C(Cc3ccccc3)O[C@H]21` [oxazoline carboxylic acid, 2-benzyl-6-(1'-carboxy-2'-methylprop-1'-enyl)-1-oxa-3,6-diaza-4S,5R-bicyclo [3.2.0] hept-2-en-7-one], the “antibacterial activity at 250 mcg./ml.” value in assay [1] was “inactive”.

Turning to `CC1(C)O[C@@H]2[C@H](N3C(=O)c4ccccc4C3=O)C(=O)N2[C@H]1C(=O)O` [6-phthalimido oxapenicillin], the “antibacterial activity versus S. lutea relative to phthalimidopenicillin” value in the assay on S. lutea (compared with phthalimidopenicillin) is “one-tenth the level of phthalimidopenicillin”.
